Assay results reported in PubChem BioAssay AID1963860 (Molecular Pharmacology Branch, DTP, NCI, 2024).
“And” between values parts separate entries of the source, which are not always exact repeats. Equal values may be shown once. The source made the active and inactive calls. The calls were made as follows: active = viability on the fitted dose curve at most 10% of control; inactive = the rest.

Tested on: CN0375-F725-PDC KRAS spheroid viability
Assay: Anticancer human tumor CN0375-F725-PDC patient-derived colon carcinoma cell line growth inhibition [KRAS2]
Conditions: spheroids with HUVEC and MSC; for viability, T/C: stronger effect = lower value
How it was run: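 KRAS-mutant tumor cells were grown as spheroids with HUVEC endothelial cells and human MSCs as stroma. Targeted agents were tested alone and with KRAS pathway inhibitors. Doses started at or near clinical Cmax, or 10 microM, descending half-log.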

[1] = curve of first compound, second compound 0.1 µM
[2] = curve of first compound, second compound 0.316 µM
[3] = curve of first compound, second compound 1 µM
[4] = curve of first compound, second compound 3.16 µM
[5] = curve of first compound, second compound 10 µM
[6] = second compound 0.1 µM, first compound 0.0316 µM
[7] = second compound 0.1 µM, first compound 0.1 µM
[8] = second compound 0.316 µM, first compound 0.0316 µM
[9] = second compound 0.316 µM, first compound 0.1 µM
[10] = second compound 1 µM, first compound 0.0316 µM
[11] = second compound 1 µM, first compound 0.1 µM
[12] = second compound 3.16 µM, first compound 0.0316 µM
[13] = second compound 3.16 µM, first compound 0.1 µM
[14] = second compound 10 µM, first compound 0.0316 µM
[15] = second compound 10 µM, first compound 0.1 µM
[16] = second compound 0.1 µM, first compound 0.316 µM
[17] = second compound 0.1 µM, first compound 1 µM
[18] = second compound 0.1 µM, first compound 3.16 µM
[19] = second compound 0.1 µM, first compound 10 µM
[20] = second compound 0.316 µM, first compound 0.316 µM
[21] = second compound 0.316 µM, first compound 1 µM
[22] = second compound 0.316 µM, first compound 3.16 µM
[23] = second compound 0.316 µM, first compound 10 µM
[24] = second compound 1 µM, first compound 0.316 µM
[25] = second compound 1 µM, first compound 1 µM
[26] = second compound 1 µM, first compound 3.16 µM
[27] = second compound 1 µM, first compound 10 µM
[28] = second compound 3.16 µM, first compound 0.316 µM
[29] = second compound 3.16 µM, first compound 1 µM
[30] = second compound 3.16 µM, first compound 3.16 µM
[31] = second compound 3.16 µM, first compound 10 µM
[32] = second compound 10 µM, first compound 0.316 µM
[33] = second compound 10 µM, first compound 1 µM
[34] = second compound 10 µM, first compound 3.16 µM
[35] = second compound 10 µM, first compound 10 µM
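Also: spheroids exposed to agents for 7 days.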

Structure (SMILES): CN(C)C/C=C/C(=O)Nc1cc2c(Nc3ccc(F)c(Cl)c3)ncnc2cc1O[C@H]1CCOC1 + CNCc1ccccc1-c1csc(C(C)Nc2nc(C)nc3cc(OC)c(OC)cc23)c1
- IC50 [1]: > 100 nM
- IC50 [2]: > 100 nM
- IC50 [3]: 77.3 nM
- IC50 [4]: 1.8 nM
- IC50 [5]: < 0.316 nM
- viability, T/C (second compound 0.1 µM, first compound 0.000316 µM): 97.1%
- viability, T/C (second compound 0.1 µM, first compound 0.001 µM): 95.9%
- viability, T/C (second compound 0.1 µM, first compound 0.00316 µM): 83.1%
- viability, T/C (second compound 0.1 µM, first compound 0.01 µM): 86.4%
- viability, T/C [6]: 78.4%
- viability, T/C [7]: 74.2%
- viability, T/C (second compound 0.316 µM, first compound 0.000316 µM): 94.8%
- viability, T/C (second compound 0.316 µM, first compound 0.001 µM): 88.3%
- viability, T/C (second compound 0.316 µM, first compound 0.00316 µM): 78.3%
- viability, T/C (second compound 0.316 µM, first compound 0.01 µM): 74.6%
- viability, T/C [8]: 76.1%
- viability, T/C [9]: 70.5%
- viability, T/C (second compound 1 µM, first compound 0.000316 µM): 76.3%
- viability, T/C (second compound 1 µM, first compound 0.001 µM): 67.6%
- viability, T/C (second compound 1 µM, first compound 0.00316 µM): 53.1%
- viability, T/C (second compound 1 µM, first compound 0.01 µM): 54.8%
- viability, T/C [10]: 60.4%
- viability, T/C [11]: 43.6%
- viability, T/C (second compound 3.16 µM, first compound 0.000316 µM): 99.2%
- viability, T/C (second compound 3.16 µM, first compound 0.001 µM): 102%
- viability, T/C (second compound 3.16 µM, first compound 0.00316 µM): 0.46%
- viability, T/C (second compound 3.16 µM, first compound 0.01 µM): 0.32%
- outcome [12]: active
- viability, T/C [13]: 3.19%
- viability, T/C (second compound 10 µM, first compound 0.000316 µM): 0.26%
- viability, T/C (second compound 10 µM, first compound 0.001 µM): 0.23%
- viability, T/C (second compound 10 µM, first compound 0.00316 µM): 0.35%
- viability, T/C (second compound 10 µM, first compound 0.01 µM): 0.73%
- viability, T/C [14]: 0.29%
- viability, T/C [15]: 0.22%

Structure (SMILES): CC1OCC2(CCN(c3cnc(Sc4ccnc(N)c4Cl)c(N)n3)CC2)C1N (stereo not given)
- viability, T/C (compound 0.0316 µM): 98.4% and 98.5% and 100%
- viability, T/C (compound 0.1 µM): 94.9% [middle of 19 runs]
- viability, T/C (compound 0.316 µM): 89.6% [middle of 19 runs]
- viability, T/C (compound 3.16 µM): 78.7% [middle of 20 runs]
- IC50 (compound alone, run of 08/19/2021): > 10000 nM
- IC50 (compound alone, run of 08/26/2021): > 10000 nM
- IC50 (compound alone, run of 09/02/2021): > 10000 nM
- IC50 (curve of compound): > 10000 nM

Structure (SMILES): COC(=O)c1ccc2c(C(=Nc3ccc(N(C)C(=O)CN4CCN(C)CC4)cc3)c3ccccc3)c(O)[nH]c2c1 + CNCc1ccccc1-c1csc(C(C)Nc2nc(C)nc3cc(OC)c(OC)cc23)c1
- IC50 [1]: 3220 nM
- IC50 [2]: 1570 nM
- IC50 [3]: 3840 nM
- IC50 [4]: < 31.6 nM
- IC50 [5]: < 31.6 nM
- viability, T/C [6]: 95.2%
- viability, T/C [7]: 95.4%
- viability, T/C [16]: 86.6%
- viability, T/C [17]: 83.5%
- viability, T/C [18]: 50.3%
- viability, T/C [19]: 0.35%
- viability, T/C [8]: 94.7%
- viability, T/C [9]: 88%
- viability, T/C [20]: 84.3%
- viability, T/C [21]: 73.1%
- viability, T/C [22]: 14.9%
- viability, T/C [23]: 0.2%
- viability, T/C [10]: 84.7%
- viability, T/C [11]: 87.9%
- viability, T/C [24]: 77.3%
- viability, T/C [25]: 68%
- viability, T/C [26]: 65%
- viability, T/C [27]: 0.24%
- viability, T/C [12]: 1%
- viability, T/C [13]: 0.73%
- viability, T/C [28]: 0.68%
- viability, T/C [29]: 1.02%
- viability, T/C [30]: 0.63%
- viability, T/C [31]: 0.32%
- viability, T/C [14]: 0.63%
- viability, T/C [15]: 0.51%
- viability, T/C [32]: 0.5%
- viability, T/C [33]: 0.37%
- viability, T/C [34]: 0.61%
- viability, T/C [35]: 0.3%

Structure (SMILES): CC(=O)Nc1cccc(-n2c(=O)n(C3CC3)c(=O)c3c(Nc4ccc(I)cc4F)n(C)c(=O)c(C)c32)c1
- viability, T/C (compound 0.0001 µM): 97.8% [middle of 5 runs]
- viability, T/C (compound 0.000316 µM): 84.8% [middle of 5 runs]
- viability, T/C (compound 0.001 µM): 71.6% [middle of 5 runs]
- viability, T/C (compound 0.00316 µM): 59.6% [middle of 5 runs]
- viability, T/C (compound 0.01 µM): 47.5% [middle of 5 runs]
- viability, T/C (compound 0.0316 µM): 34.5% [middle of 5 runs]
- IC50 (curve of compound): 7.97 nM [middle of 5 runs]

Structure (SMILES): CC1(C)CCC(CN2CCN(c3ccc(C(=O)NS(=O)(=O)c4ccc(NCC5CCOCC5)c([N+](=O)[O-])c4)c(Oc4cnc5[nH]ccc5c4)c3)CC2)=C(c2ccc(Cl)cc2)C1 + CNCc1ccccc1-c1csc(C(C)Nc2nc(C)nc3cc(OC)c(OC)cc23)c1
- IC50 [1]: 4810 nM
- IC50 [2]: 2830 nM
- IC50 [3]: < 31.6 nM
- IC50 [4]: < 31.6 nM
- IC50 [5]: < 31.6 nM
- viability, T/C [6]: 104%
- viability, T/C [7]: 104%
- viability, T/C [16]: 103%
- viability, T/C [17]: 96.2%
- viability, T/C [18]: 61.6%
- viability, T/C [19]: 29.8%
- viability, T/C [8]: 90.7%
- viability, T/C [9]: 95.5%
- viability, T/C [20]: 93.4%
- viability, T/C [21]: 89.5%
- viability, T/C [22]: 45.9%
- viability, T/C [23]: 18.7%
- viability, T/C [10]: 36.5%
- viability, T/C [11]: 42.3%
- viability, T/C [24]: 40.7%
- viability, T/C [25]: 50.9%
- viability, T/C [26]: 15.2%
- viability, T/C [27]: 7.89%
- viability, T/C [12]: 0.26%
- viability, T/C [13]: 0.27%
- viability, T/C [28]: 0.18%
- viability, T/C [29]: 0.2%
- viability, T/C [30]: 0.25%
- viability, T/C [31]: 0.68%
- viability, T/C [14]: 0.12%
- viability, T/C [15]: 0.14%
- viability, T/C [32]: 0.13%
- viability, T/C [33]: 0.13%
- viability, T/C [34]: 0.16%
- viability, T/C [35]: 0.19%

Structure (SMILES): COc1cc2nccc(Oc3ccc(NC(=O)C4(C(=O)Nc5ccc(F)cc5)CC4)cc3)c2cc1OC + C=CC(=O)N1CCN(c2nc(=O)n(-c3c(C)ccnc3C(C)C)c3nc(-c4c(O)cccc4F)c(F)cc23)C(C)C1
- IC50 [1]: > 10000 nM
- IC50 [2]: > 10000 nM
- IC50 [3]: > 10000 nM
- IC50 [4]: > 10000 nM
- IC50 [5]: 1970 nM
- viability, T/C [6]: 109%
- viability, T/C [7]: 106%
- viability, T/C [16]: 96.3%
- viability, T/C [17]: 89%
- viability, T/C [18]: 63.5%
- viability, T/C [19]: 74.1%
- viability, T/C [8]: 113%
- viability, T/C [9]: 102%
- viability, T/C [20]: 92%
- viability, T/C [21]: 85.4%
- viability, T/C [22]: 63.8%
- viability, T/C [23]: 62.1%
- viability, T/C [10]: 114%
- viability, T/C [11]: 117%
- viability, T/C [24]: 94.7%
- viability, T/C [25]: 91.1%
- viability, T/C [26]: 58.2%
- viability, T/C [27]: 71.1%
- viability, T/C [12]: 109%
- viability, T/C [13]: 107%
- viability, T/C [28]: 96.9%
- viability, T/C [29]: 89.8%
- viability, T/C [30]: 51.5%
- viability, T/C [31]: 62.1%
- viability, T/C [14]: 99.4%
- viability, T/C [15]: 96.4%
- viability, T/C [32]: 85.7%
- viability, T/C [33]: 69.3%
- viability, T/C [34]: 31.9%
- viability, T/C [35]: 41.1%
